Experimental data as given in patent US20230250066A1, “HERBICIDAL CINNOLINE DERIVATIVES” (SYNGENTA CROP PROTECTION AG, priority 2020, published 2023).

Tests used:
Format in all cases: in vivo
[1] = test system: Amaranthus retoflexus (AMARE); assay: Pre-emergence herbicidal test; conditions: 1000 g/ha, evaluated after 13 days
[2] = test system: Setaria faberi (SETFA); assay: Pre-emergence herbicidal test; conditions: 1000 g/ha, evaluated after 13 days
[3] = test system: Echinochloa crus-galli (ECHCG); assay: Pre-emergence herbicidal test; conditions: 1000 g/ha, evaluated after 13 days
[4] = test system: Ipomoea hederacea (IPOHE); assay: Pre-emergence herbicidal test; conditions: 1000 g/ha, evaluated after 13 days
[5] = test system: Abutilon theophrasti (ABUTH); assay: Pre-emergence herbicidal test; conditions: 1000 g/ha, evaluated after 13 days
[6] = test system: Zea mays (ZEAMX); assay: Pre-emergence herbicidal test; conditions: 1000 g/ha, evaluated after 13 days
[7] = test system: Abutilon theophrasti (ABUTH); assay: Post-emergence herbicidal test; conditions: 1000 g/ha unless otherwise stated, evaluated after 13 days
Description: (§1) Seeds of a variety of test species are sown in standard soil in pots (Amaranthus retoflexus (AMARE), Solanum nigrum (SOLNI), Setaria faberi (SETFA), Lolium perenne (LOLPE), Echinochloa crus-galli (ECHCG), Ipomoea hederacea (IPOHE), Abutilon theophrasti (ABUTH), Zea mays (ZEAMX)). After 8 days cultivation under controlled conditions in a glasshouse (at 24° C./16° C., day/night; 14 hours light; 65% humidity), the plants are sprayed with an aqueous spray solution derived from the formulation of the technical active ingredient in acetone/water (50:50) solution containing 0.5% Tween 20 (polyoxyethelyene sorbitan monolaurate, CAS RN 9005-64-5). Compounds are applied at 1000 g/ha unless otherwise stated. The test plants are then grown in a glasshouse under controlled conditions in a glasshouse (at 24° C./16° C., day/night; 14 hours light; 65% humidity) and watered twice daily. After 13 days the test is evaluated for the percentage damage caused to the plant. The biological activities are shown in the following table on a five-point scale (5=81-100%; 4=61-80%; 3=41-60%; 2=21-40%; 1=10-20%; 0=0%;−=not tested).

[8] = test system: Amaranthus retoflexus (AMARE); assay: Post-emergence herbicidal test; conditions: 1000 g/ha unless otherwise stated, evaluated after 13 days
Description: as §1

[9] = test system: Echinochloa crus-galli (ECHCG); assay: Post-emergence herbicidal test; conditions: 1000 g/ha unless otherwise stated, evaluated after 13 days
Description: as §1

[10] = test system: Ipomoea hederacea (IPOHE); assay: Post-emergence herbicidal test; conditions: 1000 g/ha unless otherwise stated, evaluated after 13 days
Description: as §1

[11] = test system: Setaria faberi (SETFA); assay: Post-emergence herbicidal test; conditions: 1000 g/ha unless otherwise stated, evaluated after 13 days
Description: as §1

[12] = test system: Zea mays (ZEAMX); assay: Post-emergence herbicidal test; conditions: 1000 g/ha unless otherwise stated, evaluated after 13 days
Description: as §1

SMILES	percentage damage caused to the plant, five-point scale, AMARE [1]	percentage damage caused to the plant, five-point scale, SETFA [2]	percentage damage caused to the plant, five-point scale, ECHCG [3]	percentage damage caused to the plant, five-point scale, IPOHE [4]	percentage damage caused to the plant, five-point scale, ABUTH [5]	percentage damage caused to the plant, five-point scale, ZEAMX [6]	percentage damage caused to the plant, ABUTH (five-point scale) [7]	percentage damage caused to the plant, AMARE (five-point scale) [8]	percentage damage caused to the plant, ECHCG (five-point scale) [9]	percentage damage caused to the plant, IPOHE (five-point scale) [10]	percentage damage caused to the plant, SETFA (five-point scale) [11]	percentage damage caused to the plant, ZEAMX (five-point scale) [12]
CCOC(=O)c1nn(-c2ccc(OC(F)(F)F)cc2)c2cccc(SCC)c2c1=O [Compound P23, ethyl 5-ethylsulfanyl-4-oxo-1-[4-(trifluoromethoxy)phenyl]cinnoline-3-carboxylate]	0 (0=0%)	0 (0=0%)	0 (0=0%)	0 (0=0%)	0 (0=0%)	1 (1=10-20%)	1 (1=10-20%)	0 (0=0%)	1 (1=10-20%)	1 (1=10-20%)	1 (1=10-20%)	1 (1=10-20%)
C=CC(C)OC(=O)c1nn(-c2ccc(OC(F)(F)F)cc2)c2cccc(S(C)(=O)=O)c2c1=O (stereo not drawn) [Compound P64, 1-methylallyl 5-methylsulfonyl-4-oxo-1-[4-(trifluoromethoxy)phenyl]cinnoline-3-carboxylate]	0 (0=0%)	5 (5=81-100%)	4 (4=61-80%)	0 (0=0%)	0 (0=0%)	0 (0=0%)	1 (1=10-20%)	0 (0=0%)	3 (3=41-60%)	0 (0=0%)	4 (4=61-80%)	1 (1=10-20%)
COCCCOC(=O)c1nn(-c2ccc(OC(F)(F)F)cc2)c2cccc(S(C)(=O)=O)c2c1=O [Compound P69, 3-methoxypropyl 5-methylsulfonyl-4-oxo-1-[4-(trifluoromethoxy)phenyl]cinnoline-3-carboxylate]	0 (0=0%)	4 (4=61-80%)	4 (4=61-80%)	0 (0=0%)	0 (0=0%)	0 (0=0%)	1 (1=10-20%)	0 (0=0%)	3 (3=41-60%)	1 (1=10-20%)	4 (4=61-80%)	2 (2=21-40%)
CCOC(=O)c1nn(-c2ccc(OC(F)(F)F)cc2)c2cccc([S+]([O-])CC)c2c1=O (stereo not drawn) [Compound P24, ethyl 5-ethylsulfinyl-4-oxo-1-[4-(trifluoromethoxy)phenyl]cinnoline-3-carboxylate]	0 (0=0%)	0 (0=0%)	0 (0=0%)	0 (0=0%)	0 (0=0%)	0 (0=0%)	1 (1=10-20%)	1 (1=10-20%)	1 (1=10-20%)	0 (0=0%)	0 (0=0%)	1 (1=10-20%)
COC(=O)c1nn(-c2ccc(OC(F)(F)F)cc2)c2cc(OC)cc(SC)c2c1=O [Compound P56, methyl 7-methoxy-5-methylsulfanyl-4-oxo-1-[4-(trifluoromethoxy)phenyl]cinnoline-3-carboxylate]	0 (0=0%)	0 (0=0%)	0 (0=0%)	0 (0=0%)	0 (0=0%)	0 (0=0%)	0 (0=0%)	1 (1=10-20%)	0 (0=0%)	0 (0=0%)	0 (0=0%)	0 (0=0%)
CCS(=O)(=O)c1cccc2c1c(=O)c(C(=O)O)nn2-c1ccc(OC(F)(F)F)cc1 [Compound P27, 5-ethylsulfonyl-4-oxo-1-[4-(trifluoromethoxy)phenyl]cinnoline-3-carboxylic acid]	0 (0=0%)	3 (3=41-60%)	0 (0=0%)	0 (0=0%)	0 (0=0%)	1 (1=10-20%)	1 (1=10-20%)	0 (0=0%)	2 (2=21-40%)	0 (0=0%)	2 (2=21-40%)	1 (1=10-20%)
CS(=O)(=O)c1c(Br)ccc2c1c(=O)c(C(=O)O)nn2-c1ccc(OC(F)(F)F)cc1 [Compound P12, 6-bromo-5-methylsulfonyl-4-oxo-1-[4-(trifluoromethoxy)phenyl]cinnoline-3-carboxylic acid]	0 (0=0%)	4 (4=61-80%)	1 (1=10-20%)	0 (0=0%)	1 (1=10-20%)	0 (0=0%)	1 (1=10-20%)	1 (1=10-20%)	3 (3=41-60%)	0 (0=0%)	3 (3=41-60%)	1 (1=10-20%)
CS(=O)(=O)c1cccc2c1c(=O)c(C(=O)O)nn2-c1ccc(Cl)cc1Cl [Compound P43, 1-(2,4-dichlorophenyl)-5-methylsulfonyl-4-oxo-cinnoline-3-carboxylic acid]	0 (0=0%)	4 (4=61-80%)	2 (2=21-40%)	1 (1=10-20%)	0 (0=0%)	0 (0=0%)	2 (2=21-40%)	1 (1=10-20%)	3 (3=41-60%)	1 (1=10-20%)	4 (4=61-80%)	1 (1=10-20%)
CCOC(=O)c1nn(-c2ccc(OC(F)(F)F)cc2)c2cccc(S(=O)(=O)C3CC3)c2c1=O [Compound P34, ethyl 5-cyclopropylsulfonyl-4-oxo-1-[4-(trifluoromethoxy)phenyl]cinnoline-3-carboxylate]	0 (0=0%)	0 (0=0%)	0 (0=0%)	0 (0=0%)	0 (0=0%)	0 (0=0%)	0 (0=0%)	0 (0=0%)	0 (0=0%)	0 (0=0%)	0 (0=0%)	0 (0=0%)
